Assay results published in article PMC12314110, “Evaluation of Potential Effects of CYP3A Inhibition and CYP3A Induction on the Pharmacokinetics of Fruquintinib in Healthy Subjects” (Clinical Pharmacology in Drug Development, 2025).

Legend:
[1] = set-up: method as in PMID 9925057; conditions: cited from earlier work
[2] = Safety assessments (adverse events) in healthy subjects; type: in vivo, human; conditions: Part B, after rifampin alone (Treatment Period 2); back pain, 1/14 subjects, mild (Grade 1), unrelated to study treatment
Experimental: Safety was assessed by evaluation of adverse events (AEs), serious AEs, AEs of special interest, physical examinations, vital signs, single 12‐lead electrocardiograms and cardiac monitoring, and clinical laboratory data. All AEs were coded using the Medical Dictionary for Regulatory Activities Version 23.0, and their severity was graded using the National Cancer Institute Common Terminology Criteria for Adverse Events Version 5.0.

Q: For CO[C@H]1/C=C/O[C@@]2(C)Oc3c(C)c(O)c4c(O)c(c(/C=N/N5CCN(C)CC5)c(O)c4c3C2=O)NC(=O)/C(C)=C\C=C\[C@H](C)[C@H](O)[C@@H](C)[C@@H](O)[C@@H](C)[C@H](OC(C)=O)[C@@H]1C [rifampin, reference compound], which “reduction of absorption when ingested with food” value [1] is on record?
A: The value was “approximately 30%”.

Q: What about the “treatment‐emergent AE incidence” value [2] of the same compound?
A: The value was 7.1%.
